Results as given in ChEMBL document CHEMBL5346920, “Development of the "hidden" multi-target-directed ligands by AChE/BuChE for the treatment of Alzheimer's disease” (Eur J Med Chem, 2023).
pIC50: −log10 of the molar value. Calls of active or inactive are those of the source. The rule behind the calls is not given here.

Legend:
Danio rerio [1] = species on record: Danio rerio; test: Neuroprotective activity against AlCl3-induced Alzheimer's disease zebra fish model assessed as increase in ACh content at 0.0049 to 0.078 ug/ml treated for 24 hrs and measured after 24 hrs; assay type: functional, organism-based; conditions: dose 0.0049-0.078 µg/ml, time 48.0 hrs
[2] = Acute toxicity in zebra fish assessed as effect on liver fluorescence area at 0.3125 to 1.25 ug/ml and measured at 120 hpf by microscopic analysis; set-up: species or system Danio rerio; conditions: zebrafish; dose 0.3125-1.25 µg/ml
Danio rerio [3] = species on record: Danio rerio; test: Antialzheimer activity against AlCl3-induced Alzheimer's disease zebra fish model assessed as total distance moved at 0.0049 ug/ml treated for 24 hrs and measured after 24 hrs under alternating light dark stimuli conditions (reference value: 543 cm); assay type: functional; conditions: dose 0.0049 µg/ml; time 48 hrs
Danio rerio [4] = species on record: Danio rerio; test: Neuroprotective activity against AlCl3-induced Alzheimer's disease zebra fish model assessed as distance velocity at 0.0195 ug/ml treated for 24 hrs and measured after 24 hrs under light environment (reference value: 7.7 cm/min); assay type: functional; conditions: dose 0.0195 µg/ml; time 48 hrs
Acetylcholinesterase [5] = target: T1, Acetylcholinesterase (Electrophorus electricus, UniProt O42275); test: Inhibition of electric eel AChE using acetylthiocholine chloride as substrate by Ellman's method
[6] = Acute toxicity in zebra fish assessed as effect on liver median fluorescence intensity at 0.3125 to 1.25 ug/ml and measured at 120 hpf by microscopic analysis; set-up: species or system Danio rerio; conditions: zebrafish; dose 0.3125-1.25 µg/ml
[7] = Stability of the compound in rat liver microsomes assessed as parent compound remaining at 10 ug/ml measured after 60 mins by UPLC-MS/MS analysis; assay type: ADME, Microsome; conditions: at 10 µg/mL, read-out: Stability
Cholinesterase [8] = target: T2, Cholinesterase (Equus caballus, UniProt P81908); test: Drug metabolism assessed as equine serum BuChE-mediated 3-(4-fluorophenyl)-1-(2-hydroxyphenyl)prop-2-en-1-one formation by measuring decarbamoylation rate constant with 0.25U BuChE for 9 mins by HPLC analysis; assay type: ADME, cell-free; conditions: horse, 0.15 h
[9] = Metal chelating activity assessed as compound-Fe2+ complex formation at 37.5 uM incubated for 30 mins in presence of FeSO4 by UV-Vis spectrometry
[10] = target: Cholinesterase (Equus caballus) (UniProt P81908); test: Reversible inhibition of equine serum BuChE assessed as enzyme activity using butyrylthiocholine chloride as substrate measured after dilution to 1XIC50 by Ellman's method; assay type: cell-free; set-up: scale not given: the % may be the effect or the level left
PC-12 = test: Cytotoxicity against rat PC-12 cells assessed as cell viability at 40 uM by CCK-8 assay; assay type: toxicity, cell-based; conditions: pc-12, 40 µM
BV-2 = test: Cytotoxicity against mouse BV-2 cells assessed as reduction in cell viability at 10 uM by CCK8 assay; assay type: toxicity, cell-based; conditions: bv-2, 10 µM
Danio rerio [11] = species on record: Danio rerio; test: Antialzheimer activity against AlCl3-induced Alzheimer's disease zebra fish model assessed as total distance moved at 0.0049 ug/ml treated for 24 hrs and measured after 24 hrs under dark environment (reference value: 312 cm); assay type: functional; conditions: dose 0.0049 µg/ml; time 48 hrs
Danio rerio [12] = species on record: Danio rerio; test: Antialzheimer activity against AlCl3-induced Alzheimer's disease zebra fish model assessed as total distance moved at 0.0195 ug/ml treated for 24 hrs and measured after 24 hrs under light environment (reference value: 230 cm); assay type: functional; conditions: dose 0.0195 µg/ml; time 48 hrs
Danio rerio [13] = species on record: Danio rerio; test: Neuroprotective activity against AlCl3-induced Alzheimer's disease zebra fish model assessed as inhibition of AlCl3-induced AChE activity at 0.0049 to 0.078 ug/ml treated for 24 hrs and measured after 24 hrs; assay type: functional, organism-based; conditions: dose 0.0049-0.078 µg/ml, time 48.0 hrs
[14] = Selectivity index, ratio of IC50 for inhibition of electric eel AChE to IC50 for inhibition of equine serum BuChE
[15] = target: T3, Amine oxidase [flavin-containing] B (Homo sapiens, UniProt P27338); test: Inhibition of human recombinant MAO-B expressed in baculovirus-infected BTI cells using kynuramine as substrate incubated for 30 mins by fluorescence based analysis
T3 sequence (P27338 whole entry): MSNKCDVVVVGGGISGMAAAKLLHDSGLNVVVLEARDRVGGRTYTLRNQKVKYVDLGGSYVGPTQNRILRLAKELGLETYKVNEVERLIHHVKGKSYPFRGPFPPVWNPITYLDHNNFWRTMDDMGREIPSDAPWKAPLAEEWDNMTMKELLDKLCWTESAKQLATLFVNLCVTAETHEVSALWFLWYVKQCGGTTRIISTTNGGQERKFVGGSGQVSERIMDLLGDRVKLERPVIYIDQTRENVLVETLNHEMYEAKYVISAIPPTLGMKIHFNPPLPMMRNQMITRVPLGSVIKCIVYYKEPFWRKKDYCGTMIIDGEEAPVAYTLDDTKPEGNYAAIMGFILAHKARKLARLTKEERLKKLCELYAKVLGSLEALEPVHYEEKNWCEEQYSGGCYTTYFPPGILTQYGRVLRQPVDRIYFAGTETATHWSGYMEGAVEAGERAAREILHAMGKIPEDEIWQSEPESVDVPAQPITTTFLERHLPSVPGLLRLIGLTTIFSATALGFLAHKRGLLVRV

Danio rerio [16] = species on record: Danio rerio; test: Antialzheimer activity against AlCl3-induced Alzheimer's disease zebra fish model assessed as total distance moved at 0.0195 ug/ml treated for 24 hrs and measured after 24 hrs under dark environment (reference value: 312 cm); assay type: functional; conditions: dose 0.0195 µg/ml; time 48 hrs
[17] = Stability of the compound in blank intestinal juice assessed as parent compound remaining at 1 mg/ml measured after 8 hrs by UPLC-MS/MS analysis; assay type: ADME; conditions: read-out: Stability
Acetylcholinesterase [18] = target: T1, Acetylcholinesterase; test: Drug metabolism assessed as electric eel AChE-mediated 3-(4-fluorophenyl)-1-(2-hydroxyphenyl)prop-2-en-1-one formation by measuring decarbamoylation rate constant treated with 0.25U AChE for 9 mins by HPLC analysis; assay type: ADME; conditions: 0.15 h
Danio rerio [19] = species on record: Danio rerio; test: Neuroprotective activity against AlCl3-induced Alzheimer's disease zebra fish model assessed as distance velocity at 0.0049 ug/ml treated for 24 hrs and measured after 24 hrs under alternating light dark stimuli conditions (reference value: 9 cm/min); assay type: functional; conditions: dose 0.0049 µg/ml; time 48 hrs
Danio rerio [20] = species on record: Danio rerio; test: Antialzheimer activity against AlCl3-induced Alzheimer's disease zebra fish model assessed as total distance moved at 0.078 ug/ml treated for 24 hrs and measured after 24 hrs under light environment (reference value: 230 cm); assay type: functional; conditions: dose 0.078 µg/ml; time 48 hrs
Danio rerio [21] = species on record: Danio rerio; test: Neuroprotective activity against AlCl3-induced Alzheimer's disease zebra fish model assessed as distance velocity at 0.078 ug/ml treated for 24 hrs and measured after 24 hrs under alternating light dark stimuli conditions (reference value: 9 cm/min); assay type: functional; conditions: dose 0.078 µg/ml; time 48 hrs
Danio rerio [22] = species on record: Danio rerio; test: Antialzheimer activity against AlCl3-induced Alzheimer's disease zebra fish model assessed as total distance moved at 0.0049 ug/ml treated for 24 hrs and measured after 24 hrs measured under light environment (reference value: 230 cm); assay type: functional; conditions: dose 0.0049 µg/ml; time 48 hrs
Acetylcholinesterase [23] = target: T1, Acetylcholinesterase; test: Drug metabolism assessed as electric eel AChE-mediated 3-(4-fluorophenyl)-1-(2-hydroxyphenyl)prop-2-en-1-one formation treated at 150 mmol/L with 0.25U AChE and measured after 6 secs by HPLC analysis; assay type: ADME; conditions: 6 s, time 6 sec
Cholinesterase [24] = target: T2, Cholinesterase; test: Inhibition of equine serum BuChE using butyrylthiocholine chloride as substrate by Ellman's method; assay type: cell-free
Danio rerio [25] = species on record: Danio rerio; test: Neuroprotective activity against AlCl3-induced Alzheimer's disease zebra fish model assessed as distance velocity at 0.078 ug/ml treated for 24 hrs and measured after 24 hrs under dark environment (reference value: 10.4 cm/min); assay type: functional; conditions: dose 0.078 µg/ml; time 48 hrs

T1 sequence (O42275 whole entry): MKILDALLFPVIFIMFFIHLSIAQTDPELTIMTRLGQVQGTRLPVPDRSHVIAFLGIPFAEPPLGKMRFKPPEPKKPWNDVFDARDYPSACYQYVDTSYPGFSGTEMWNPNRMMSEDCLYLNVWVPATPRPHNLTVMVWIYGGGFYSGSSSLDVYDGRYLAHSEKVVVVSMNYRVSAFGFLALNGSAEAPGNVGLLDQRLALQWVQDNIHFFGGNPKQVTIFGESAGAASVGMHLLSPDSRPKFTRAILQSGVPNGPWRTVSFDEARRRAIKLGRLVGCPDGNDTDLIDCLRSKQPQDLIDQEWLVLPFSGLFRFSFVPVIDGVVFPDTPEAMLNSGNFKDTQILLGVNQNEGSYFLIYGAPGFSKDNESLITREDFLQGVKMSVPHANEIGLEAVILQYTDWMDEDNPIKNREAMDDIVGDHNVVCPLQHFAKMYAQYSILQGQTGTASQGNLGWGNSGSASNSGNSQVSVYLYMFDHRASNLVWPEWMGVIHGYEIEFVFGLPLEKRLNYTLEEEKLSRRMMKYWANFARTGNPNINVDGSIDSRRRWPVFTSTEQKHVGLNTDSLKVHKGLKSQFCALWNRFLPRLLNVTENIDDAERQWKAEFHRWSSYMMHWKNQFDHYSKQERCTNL
T2 sequence (P81908 whole entry): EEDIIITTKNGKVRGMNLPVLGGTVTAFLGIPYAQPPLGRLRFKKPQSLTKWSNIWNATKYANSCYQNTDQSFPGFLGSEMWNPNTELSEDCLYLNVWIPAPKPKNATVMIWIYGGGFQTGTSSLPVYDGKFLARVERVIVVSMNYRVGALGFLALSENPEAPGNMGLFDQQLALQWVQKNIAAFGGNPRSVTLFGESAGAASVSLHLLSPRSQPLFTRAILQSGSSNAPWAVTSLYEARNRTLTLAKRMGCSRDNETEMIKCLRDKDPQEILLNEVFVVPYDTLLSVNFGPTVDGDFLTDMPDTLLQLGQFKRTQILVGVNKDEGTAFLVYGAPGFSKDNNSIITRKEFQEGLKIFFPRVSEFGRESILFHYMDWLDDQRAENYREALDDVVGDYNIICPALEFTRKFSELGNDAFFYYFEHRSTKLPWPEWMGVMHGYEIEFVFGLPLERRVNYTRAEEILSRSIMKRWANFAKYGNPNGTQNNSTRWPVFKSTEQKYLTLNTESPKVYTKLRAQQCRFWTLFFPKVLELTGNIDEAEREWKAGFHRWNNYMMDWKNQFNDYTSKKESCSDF
Chain of Cholinesterase (Equus caballus) (P81908 whole entry): as above

CCN(C)C(=O)Oc1ccccc1C(=O)/C=C/c1ccc(F)cc1
Activity (Danio rerio [1]): Active | Activity [2]: Non-Toxic | Activity (Danio rerio [3]): 764 cm | Activity (Danio rerio [4]): 11.5 cm/min | pIC50 (Acetylcholinesterase [5]): 5.28 | Activity [6]: Non-Toxic | remaining at 1 h, 10 ug/ml [7]: 96.2% | K (Cholinesterase [8]): 4.05 M⁻¹ s⁻¹ | Activity [9]: inactive | Activity [10]: 51.7% | Activity (PC-12): Non-Toxic | Activity (BV-2): Non-Toxic | Activity (Danio rerio [11]): 391 cm | Activity (Danio rerio [12]): 344 cm | Activity (Danio rerio [13]): Active | Ratio IC50 [14]: 0.43 | pIC50 [15]: 5.72 | Activity (Danio rerio [16]): 577 cm | remaining at 8 h, 1 mg/ml [17]: 98.5% | K (Acetylcholinesterase [18]): 5.2 M⁻¹ s⁻¹ | Activity (Danio rerio [19]): 12.7 cm/min | Activity (Danio rerio [20]): 226 cm | Activity (Danio rerio [21]): 12.7 cm/min | Activity (Danio rerio [22]): 373 cm | Drug metabolism (Acetylcholinesterase [23]): 1.46 mmol/L | pIC50 (Cholinesterase [24]): 4.91 | Activity (Danio rerio [25]): 17.9 cm/min
